Experimental data from patent US8338420B1, “Treatment of Parkinson's disease and enhancement of dopamine signal using PDE 10 inhibitor” (Mitsubishi Tanabe Pharma Corporation, priority 2002, dated 2012).

Assays:
PDE10 (PDE10A) = test: Measurement of PDE10 inhibitory activity (radiolabeled nucleotide PDE assay); format: biochemical, bovine; conditions: versus PDE1, 2, 3, 4, 5, 6, 7, 8, 9 and 11; IC50 value of 1/100 or less
From the text: (1) Enzyme Preparation of PDE10 (PDE10A)
According to the methods described in Fujishige et al. (Fujishige et al., Eur. J. Biochem., vol. 266, pp. 1118-1127, 1999; and Mukai et al., Br. J. Pharmacol., vol. 111, pp. 389-390, 1994), the enzyme PDE10A was isolated and prepared as follows.
At first, corpus striatum was excised from bovine whole brain (Japanese Black Cattle, purchased from Tokyo Shibaura Zoki, co., Ltd.), and washed with ice-cold saline (0.9% sodium chloride). After the tissues were cut in a proper size, it was frozen by liquid nitrogen, and stored at −80° C. […]
The PDE assay was performed using the enzyme solution obtained in the above (1), and inhibitory activities of the compounds on PDE10 (PDE10A) were measured. […]
After the reaction was carried out while keeping the temperature at 37° C. for 30 minutes, the reaction was stopped by boiling the reaction mixture for 2 minutes, and further added thereto was 100 μl of snake venom (Crotalus atrox snake venom 1 mg/ml) and the temperature was kept at 37° C. for 30 minutes. […] Scintillation cocktail was added to each of the eluates, and the radioactivity was measured by scintillation counter. From them, PDE activity taking cAMP as a substrate (an activity to hydrolyze cAMP) was measured. […]

marmoset MPTP model = test: Marmoset MPTP model, effect on bromocriptine efficacy; format: in vivo; conditions: together with bromocriptine (0.3 mg/kg), versus vehicle with bromocriptine
Protocol: Using bromocriptine (bromocriptine mesilate) as a dopamine receptor agonist, effect of test compound on pharmaceutical effects caused by administration of dopamine receptor agonist, in marmoset MPTP model was tested as follows.
The same method was employed as in Example 6, except for using bromocriptine (bromocriptine mesilate) in place of L-dopa and benserazide.
Each test was performed with respect to the same individual sequentially, and intervals of 5 days or more were allowed between the tests. • test 1: vehicle • test 2: vehicle and bromocriptine mesilate • test 3: test compound (PDE10 inhibitor) and bromocriptine mesilate
[…] Further, as test compounds, compounds confirmed with PDE10 inhibitory activities were administered via saphenous vein, 90 minutes before administration of bromocriptine mesilate, under anesthesia by ketamine and isoflurane (In test 1 and test 2, only vehicle was administered in place of the test compound in the same manner).
Bromocriptine mesilate was suspended in 0.5% methylcellulose solution on the day of administration and used. Test compound (PDE10 inhibitor) was dissolved in a solvent 30 minutes before administration and used.
After administration of test compound (PDE10 inhibitor) (or vehicle) and bromocriptine mesilate, locomotor activity and motor disability score were evaluated for each individual, in the same manner as in Example 6. […]

COc1ccc(-c2cc(N3CCCC3)nc(/C=C/c3nc(-n4ccnc4)c4ccccc4n3)n2)cc1OC [Compound A, 2-{(E)-2-[4-(1-imidazolyl)-quinazolin-2-yl]}ethenyl-4-(3,4-dimethoxy)phenyl-6-(pyrrolidin-1-yl)pyrimidine]
inhibitory activity on PDE10 as compared to other PDE families (selectivity) (PDE10 (PDE10A)): ≥ 100 times | effects of bromocriptine to alleviate symptoms (locomotor activity and motor disability score) (marmoset MPTP model): had a tendency to enhance the effects of bromocriptine to alleviate symptoms
